{"source": "patent US9732320B2", "about": "“Selective differentiation, identification, and modulation of human TH17 cells” (THE BRIGHAM AND WOMEN'S HOSPITAL, INC., priority 2008, dated 2017)", "molecules": {"B1": {"name": "IL-23: cytokine, 25 ng/ml (protein, UniProt Q9NPF7 20-189; P29460 23-328, looked up)", "Interleukin-23 subunit alpha": "RAVPGGSSPAWTQCQQLSQKLCTLAWSAHPLVGHMDLREEGDEETTNDVPHIQCGDGCDPQGLRDNSQFCLQRIHQGLIFYEKLLGSDIFTGEPSLLPDSPVGQLHASLLGLSQLLQPEGHHWETQQIPSLSPSQPWQRLLLRFKILRSLQAFVAVAARVFAHGAATLSP", "Interleukin-12 subunit beta": "IWELKKDVYVVELDWYPDAPGEMVVLTCDTPEEDGITWTLDQSSEVLGSGKTLTIQVKEFGDAGQYTCHKGGEVLSHSLLLLHKKEDGIWSTDILKDQKEPKNKTFLRCEAKNYSGRFTCWWLTTISTDLTFSVKSSRGSSDPQGVTCGAATLSAERVRGDNKEYEYSVECQEDSACPAAEESLPIEVMVDAVHKLKYENYTSSFFIRDIIKPDPPKNLQLKPLKNSRQVEVSWEYPDTWSTPHSYFSLTFCVQVQGKSKREKKDRVFTDKTSATVICRKNASISVRAQDRYYSSSWSEWASVPCS"}}, "key": {"[1]": {"test_system": "naïve human CD4+ T cells", "assay": "Quantitative RT-PCR of stimulated naïve CD4+ T cells from peripheral blood", "type": "cell-based", "settings": "for IL-22 mRNA: absence of exogenous IL-23; for IL-23 receptor up-regulation: stimulated naïve CD4+ T cells", "experimental": "The mean fold-induction (relative to T cells stimulated in the absence of exogenous cytokines) and standard error among three independent experiments using T cells from three unrelated subjects are represented.\n(§1) Naïve or central memory CD4^+ T cells were stimulated with plate-bound anti-CD3 and soluble CD28 monoclonal antibodies (1 μg/ml, each) in serum-free X-VIVO15 medium (Biowhittaker Inc., Walkersville, Md.) and cytokines (IL-6, 25 ng/ml; TGF-β, 5 ng/ml; IL-1β, 12.5 ng/ml; IL-21, 25 ng/ml; IL-23, 25 ng/ml) for a period of seven days, at which point supernatants were collected and tested by ELISA for IFN-β (BD Biosciences) or IL-17A (eBioscience, San Diego, Calif.) using paired antibodies. Intracytoplasmic staining was performed using standard methodologies and anti-IL-17-APC (R&D Systems, Minneapolis, Minn.) and anti-IFN-β-PE (BD Biosciences) antibodies.\nAll primers and probes were obtained from Applied Biosystems (Foster City, Calif.), and used according to standard methodologies."}, "[2]": {"test_system": "naïve cord blood T cells", "assay": "Quantitative RT-PCR of stimulated naïve CD4+ T cells from cord blood", "type": "cell-based, human", "settings": "seven days", "experimental": "Sorted T cells were stimulated for seven days in the presence of the indicated cytokines, at which point RNA was collected and levels of IL-17A and RORC2 were measured by quantitative RT-PCR. Mean expression and standard error are reported based on three independent experiments using cord blood from three distinct donors.\n(§2) PBMCs were obtained from the peripheral blood of healthy subjects or from cord blood (AllCells) in compliance with institutional IRB protocols. CD4+ T cells were subsequently isolated by negative selection using magnetic beads (Miltenyi Biotech Inc., Auburn, Calif.). Naïve (CD25^− CD62L^+ CD45RA^hi) and central memory (CD25^− CD62L^+ CD45RA^−) CD4^+ T cells were obtained by staining with the following antibodies: CD62L-FITC, CD4-PerCP, CD45RA-PE-Cy7, CD25-APC-Cy7 (BD Pharmingen, San Diego, Calif.) and were sorted on a FACS Aria (BD Biosciences, Palo Alto, Calif.).\nas §1, with “Intracytoplasmic staining was performed using standard methodologies and anti-IL-17-APC (R&D Systems, Minneapolis, Minn.) and anti-IFN-β-PE (BD Biosciences) antibodies.” left out"}, "[3]": {"test_system": "human naïve CD4+ T cells", "assay": "Differentiation assay: naïve CD4+ T cells stimulated with anti-CD3/anti-CD28 plus cytokines for seven days; ELISA and intracytoplasmic staining", "type": "cell-based", "settings": "for IFN-β secretion from naïve T cells / IL-17A secretion from naïve CD4+ T cells: ELISA; for IL-17A secretion from naïve CD4+ T cells: serum-free medium", "description": "(§3) Error bars represent the standard deviation among three independent experiments using T cells from three unrelated subjects.\nas §2, §1"}, "[4]": {"test_system": "human central memory CD4+ T cells", "assay": "Differentiation assay: central memory CD4+ T cells (TCM) stimulated with anti-CD3/anti-CD28 plus cytokines for seven days; ELISA", "type": "cell-based", "description": "as §3, §2, §1"}, "[5]": {"test_system": "TH17 cells", "assay": "Chemotaxis chamber assay, TH17 cells", "type": "cell-based", "experimental": "(§4) TH17 or TH1 cells alone or together with different concentrations of LTB4 inhibitor, U75-302, were added to the upper wells of chemotaxis chambers with 10^−8M of LTB4 in the lower wells. Cells were kept at 37° C. in 10% CO2 for 2 hr. Cells from the lower chamber were then stained with anti-CD4 antibody and stimulated for 4 hr with PMA/ionomycin in the presence of Golgi Stop. Cells were permeabilized and stained intracellularly for IL-17 or IFN-γ. The chemotactic index was calculated by dividing the number of CD4^+ IL-17^+ (for TH17 cells) or CD4^+ IFN-γ+ (for TH1 cells) migrated cells in LTB4-containing wells by the number of CD4^+ IL-17^+ (for TH17 cells) or CD4^+ IFN-γ+ (for Th1 cells) cells that migrated spontaneously to media alone."}, "[6]": {"biological_target": "BLT1 (Homo sapiens, UniProt Q15722)", "sequence (Q15722 whole entry, species assumed)": "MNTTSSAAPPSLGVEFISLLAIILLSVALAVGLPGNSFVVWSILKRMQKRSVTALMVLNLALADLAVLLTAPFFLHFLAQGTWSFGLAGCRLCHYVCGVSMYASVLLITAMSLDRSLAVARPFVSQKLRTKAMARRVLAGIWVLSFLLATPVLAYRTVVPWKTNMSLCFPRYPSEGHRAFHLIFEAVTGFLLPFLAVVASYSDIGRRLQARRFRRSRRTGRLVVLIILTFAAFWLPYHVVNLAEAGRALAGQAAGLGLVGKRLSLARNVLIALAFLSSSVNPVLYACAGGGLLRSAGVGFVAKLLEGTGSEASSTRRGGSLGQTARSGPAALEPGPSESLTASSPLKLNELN", "settings": "Richards et al. 1989; cited from earlier work"}, "[7]": {"test_system": "TH1 cells", "assay": "Chemotaxis chamber assay, TH1 cells", "type": "cell-based", "settings": "10^−8M of LTB4 in the lower wells, 2 hr", "experimental": "as §4"}}, "data": [{"molecule": "IL-21: cytokine, 25 ng/ml", "values": [{"measurement": "IL-21 mRNA", "setting": "[1]; naïve CD4+ T cells", "result": "significantly up-regulated IL-21"}, {"measurement": "IL-22 mRNA", "setting": "[1]; naïve CD4+ T cells", "result": "induced IL-22 mRNA levels"}, {"measurement": "IL-23 receptor up-regulation", "setting": "[1]", "result": "induced IL-23 receptor up-regulation"}, {"measurement": "RORC2 mRNA", "setting": "[2]", "result": "modestly induced RORC2"}, {"measurement": "TH17 differentiation from naïve CD4+ T cells", "setting": "[3]", "result": "does not induce human TH17 differentiation"}, {"measurement": "IFN-β secretion from naïve T cells", "setting": "[3]", "result": "induced significant amounts of IFN-β secretion"}, {"measurement": "IL-17A secretion from naïve CD4+ T cells", "setting": "[3]", "result": "unable to synergize with endogenous levels of TGF-β to promote IL-17 secretion"}]}, {"molecule": "IL-6: cytokine, 25 ng/ml", "values": [{"measurement": "IL-17A secretion from TCM", "setting": "[4]", "result": "little effect"}, {"measurement": "Inhibition of the FoxP3 induction by TGF-β", "setting": "[1]; cytokine added with TGF-β", "result": "inhibited"}, {"measurement": "IL-23 receptor up-regulation", "setting": "[1]", "result": "induced IL-23 receptor up-regulation"}, {"measurement": "IFN-β secretion from naïve T cells", "setting": "[3]", "result": "induced significant amounts of IFN-β secretion"}]}, {"molecule": "TGF-β: cytokine, 5 ng/ml; doses from 1 ng/ml to 100 ng/ml examined", "values": [{"measurement": "IL-21 mRNA", "setting": "[1]; naïve CD4+ T cells", "result": "suppressed the expression of IL-21 and IL-22 mRNA induced by IL-21"}, {"measurement": "IL-22 mRNA", "setting": "[1]; naïve CD4+ T cells", "result": "suppressed the expression of IL-21 and IL-22 mRNA induced by IL-21"}, {"measurement": "FoxP3 expression", "setting": "[1]; naïve CD4+ T cells, seven days", "result": "induced"}, {"measurement": "T-bet mRNA expression", "setting": "[1]; naïve CD4+ T cells, seven days", "result": "suppresses the induction of T-bet by IL-21"}, {"measurement": "IL-23 receptor up-regulation", "setting": "[1]", "result": "not"}, {"measurement": "TH17 differentiation from naïve CD4+ T cells", "setting": "[3]", "result": "all differentiation/proliferation was suppressed"}]}, {"molecule": "IL-1β: cytokine, 12.5 ng/ml", "values": [{"measurement": "IL-17A secretion from TCM", "setting": "[4]", "result": "induced the greatest amount of IL-17A secretion"}, {"measurement": "IL-21 mRNA", "setting": "[1]; naïve CD4+ T cells", "result": "induced even greater amounts of IL-21 mRNA"}, {"measurement": "IL-23 receptor up-regulation", "setting": "[1]", "result": "induced IL-23 receptor up-regulation"}, {"measurement": "IFN-β secretion from naïve T cells", "setting": "[3]", "result": "induced significant amounts of IFN-β secretion"}, {"measurement": "IL-17A secretion from naïve CD4+ T cells", "setting": "[3]", "result": "failed, however, to induce IL-17A secretion"}]}, {"molecule": "CCCCC/C=C\\C[C@@H](O)/C=C/c1cccc(C[C@@H](O)CCCCO)n1", "note": "[U-75302, 6-(6-(3R-hydroxy-1E,5Z-undecadien-1-yl)-2-pyridinyl)-1,5S-hexandiol]", "values": [{"measurement": "Block of LTB4-induced migration of Th17 cells", "setting": "[5]; different doses of antagonist in the upper wells", "result": "blocked in a dose dependant manner"}, {"measurement": "Binding to BLT1", "setting": "[6]", "result": "specifically binds BLT1"}]}, {"molecule": "CCCCC/C=C\\C[C@@H](O)/C=C/C=C/C=C\\[C@@H](O)CCCC(=O)O", "note": "[LTB4, Leukotriene B4]", "values": [{"measurement": "Migration (chemotaxis) of TH17 cells", "setting": "[5]; 10^−8M of LTB4 in the lower wells, 2 hr", "result": "induced the selective migration"}, {"measurement": "Migration (chemotaxis) of TH1 cells", "setting": "[7]", "result": "not"}]}, {"molecule": "B1", "values": [{"measurement": "IL-17A secretion from TCM", "setting": "[4]", "result": "modestly enhance IL-17A secretion"}]}]}
